Measured values from patent US6011060A, “Chiral phenyldihydrofuranones as PDE-IV inhibitors” (Schering Aktiengesellschaft, priority 1996, dated 2000).
pKi: −log10 of the molar value.

Target: radiolabeled Rolipram of rat brain homogenates
Assay: displacement of radiolabeled Rolipram in rat brain homogenates, in vitro (Eur. J. Pharmacol. 127, 105-115 (1986))
Assay type: binding
Settings: 3H-rolipram tracer, IC50 converted: Ki = IC50/[1+(L/KD)]
Experimental: The action on the central nervous system is determined in vitro by measuring the displacement capacity of radiolabeled Rolipram of rat brain homogenates (Eur. J. Pharmacol., Vol. 127, 105-115 (1986)). The IC50 values (that concentration in which 50% inhibiting action occurs) were converted into inhibition constant Ki, which is calculated according to the formula below: […]
in which L means the concentration of the radioactive tracer and KD means the dissociation constant of the ^3 H-rolipram bond, which is determined separately.

SMILES	pKi
COc1ccc(C2(C)CCC(=O)O2)cc1OC1CCC1 (racemic) [cyclobutyl, Racemate, (R,S)-5-(3-cyclobutyloxy-4-methoxyphenyl)-5-methyl-dihydro-2-furanone]	9.42
COc1ccc(C2(C)CCC(=O)O2)cc1OC1CCCC1 (racemic) [cyclopentyl, Racemate, (R,S)-5-(3-cyclopentyloxy-4-methoxyphenyl)-5-methyl-dihydro-2-furanone]	9.30
COc1ccc(C2(C)CCC(=O)O2)cc1OCC1CC1 (racemic) [cyclopropylmethyl, Racemate, (R,S)-5-(3-cyclopropylmethoxy-4-methoxyphenyl)-5-methyl-dihydro-2-furanone]	9.68
COc1ccc(C2(C)CCC(=O)O2)cc1OCC(C)C (racemic) [isobutyl, Racemate, (R,S)-5-(3-isobutyloxy-4-methoxyphenyl)-5-methyl-dihydro-2-furanone]	9.32
CCCOc1cc(C2(C)CCC(=O)O2)ccc1OC (racemic) [propyl, Racemate, (R,S)-5-(4-methoxy-3-propoxyphenyl)-5-methyl-dihydro-2-furanone]	9.13
COc1ccc([C@@]2(C)CCC(=O)O2)cc1OC1CCC1 [cyclobutyl, (R)-(+)-enantiomer, (R)-(+)-5-(3-cyclobutyloxy-4-methoxyphenyl)-5-methyl-dihydro-2-furanone]	8.72
COc1ccc([C@]2(C)CCC(=O)O2)cc1OC1CCC1 [cyclobutyl, (S)-(-)-enantiomer, (S)-(-)-5-(3-cyclobutyloxy-4-methoxyphenyl)-5-methyl-dihydro-2-furanone]	9.70
COc1ccc([C@@]2(C)CCC(=O)O2)cc1OC1CCCC1 [cyclopentyl, (R)-(+)-enantiomer, (R)-(+)-5-(3-cyclopentyloxy-4-methoxyphenyl)-5-methyl-dihydro-2-furanone]	8.55
COc1ccc([C@]2(C)CCC(=O)O2)cc1OC1CCCC1 [cyclopentyl, (S)-(-)-enantiomer, (S)-(-)-5-(3-cyclopentyloxy-4-methoxyphenyl)-5-methyl-dihydro-2-furanone]	9.55
COc1ccc([C@@]2(C)CCC(=O)O2)cc1OCC1CC1 [cyclopropylmethyl, (R)-(+)-enantiomer, (R)-(+)-5-(3-cyclopropylmethoxy-4-methoxyphenyl)-5-methyl-dihydro-2-furanone]	8.66
COc1ccc([C@]2(C)CCC(=O)O2)cc1OCC1CC1 [cyclopropylmethyl, (S)-(-)-enantiomer, (S)-(-)-5-(3-cyclopropylmethoxy-4-methoxyphenyl)-5-methyl-dihydro-2-furanone]	9.89
COc1ccc([C@@]2(C)CCC(=O)O2)cc1OCC(C)C [isobutyl, (R)-(+)-enantiomer, (R)-(+)-5-(3-isobutyloxy-4-methoxyphenyl)-5-methyl-dihydro-2-furanone]	8.64
COc1ccc([C@]2(C)CCC(=O)O2)cc1OCC(C)C [isobutyl, (S)-(-)-enantiomer, (S)-(-)-5-(3-isobutyloxy-4-methoxyphenyl)-5-methyl-dihydro-2-furanone]	9.60
CCCOc1cc([C@@]2(C)CCC(=O)O2)ccc1OC [propyl, (R)-(+)-enantiomer, (R)-(+)-5-(4-methoxy-3-propoxyphenyl)-5-methyl-dihydro-2-furanone]	8.14
CCCOc1cc([C@]2(C)CCC(=O)O2)ccc1OC [propyl, (S)-(-)-enantiomer, (S)-(-)-5-(4-methoxy-3-propoxyphenyl)-5-methyl-dihydro-2-furanone]	9.33
